Literature values, collected in US20160339123A1, “POLYBUTYLACRYLATE-BASED NANOCOMPOSITE PHOTOACOUSTIC IMAGING AGENT AND A PREPARATION METHOD THEREOF” (Wenzhou Institute of Biomaterials and Engineering, priority 2015, published 2016).

Details: near infrared region

| SMILES | absorption peak [nm] |
| --- | --- |
| CC1(C)C(/C=C/C=C/C=C/C=C2\N(CCCCS(=O)(=O)O)c3ccc4ccccc4c3C2(C)C)=[N+](CCCCS(=O)(=O)[O-])c2ccc3ccccc3c21 [indocyanine green] | ~780 |
| CN(C)c1ccc2nc3ccc(=[N+](C)C)cc-3sc2c1 [methylene blue] | ~664 |
